Assay type in all cases: cell-based
For assay [1], the system named is Klebsiella pneumoniae XNWB 0003. The experiment in a line: MIC assay of test compounds combined with imipenem (4 μg/mL). Conditions: imipenem 4 μg/mL fixed. The method, boiled down: (§1)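 Antibiotic potentiation test: compound serially diluted, partner β-lactam at constant concentration, CAMHB medium, saline-standardised inoculum (OD600 0.1-0.15) diluted 300-fold. Incubated 16-20 h at 35±2 °C.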

The subject of assay [2] is Klebsiella pneumoniae XNWB 0002. The description is as above. Conditions: imipenem 4 μg/mL fixed. The procedure, abridged:
as §1

Assay [3] concerns Acinetobacter baumannii XNWB 0007. The description is as above. Conditions: imipenem 4 μg/mL fixed. The method, boiled down:
as §1

The test system of assay [4] is Klebsiella pneumoniae XNWB 0005. The description is as above. As to conditions: imipenem 4 μg/mL fixed. The method, boiled down:
as §1

Assay [5] relates to Pseudomonas aeruginosa XNWB 0008. Described as above. Conditions: imipenem 4 μg/mL fixed. The procedure, abridged: as §1
In assay [6] the test system is Klebsiella pneumoniae XNWB 0001. The assay is described as above. Conditions: imipenem 4 μg/mL fixed. The method, boiled down:
as §1

In assay [7] the test system is Klebsiella pneumoniae XNWB 0006. Described as above. As to conditions: imipenem 4 μg/mL fixed. The method, boiled down:
as §1

The subject of assay [8] is Klebsiella pneumoniae XNWB 0004. The description is as above. As to conditions: imipenem 4 μg/mL fixed. The procedure, abridged: as §1
Assay [9] has as its system Klebsiella pneumoniae XNWB 0003. The assay can be described thus: MIC assay of test compounds combined with ceftazidime (8 μg/mL). Conditions: ceftazidime 8 μg/mL fixed. The method, boiled down:
as §1

In assay [10] the test system is Klebsiella pneumoniae XNWB 0002. The assay is described as above. As to conditions: ceftazidime 8 μg/mL fixed. The method, boiled down:
as §1

Assay [11] has as its system Acinetobacter baumannii XNWB 0007. Described as above. Conditions: ceftazidime 8 μg/mL fixed. The method, boiled down: as §1
Assay [12] has as its system Klebsiella pneumoniae XNWB 0005. The description is as above. As to conditions: ceftazidime 8 μg/mL fixed. The procedure, abridged:
as §1

Assay [13] has as its system Pseudomonas aeruginosa XNWB 0008. The description is as above. Conditions: ceftazidime 8 μg/mL fixed. The procedure, abridged:
as §1

Assay [14] has as its system Klebsiella pneumoniae XNWB 0001. The description is as above. Conditions: ceftazidime 8 μg/mL fixed. The method, boiled down:
as §1

In assay [15] the test system is Klebsiella pneumoniae XNWB 0006. Described as above. As to conditions: ceftazidime 8 μg/mL fixed. The procedure, abridged:
as §1

For assay [16], the system named is Klebsiella pneumoniae XNWB 0004. Described as above. Conditions: ceftazidime 8 μg/mL fixed. The procedure, abridged:
as §1

Counter-ions that a name gives are not always drawn.

Take `N[C@H]1C[C@@H](c2cc([C@@H]3CC4(CC4)[C@@H]4CN3C(=O)N4OS(=O)(=O)O)no2)C1` [Example 26, (1R,4S)-4-(5-((1R,3R)-3-aminocyclobutyl)isoxazol-3-yl)-6-oxo-5,7-diazaspiro[bicycle [3.2.1]octane-2,1′-cyclopropan]-7-yl sulfate]: the “The minimum concentration of test compounds combined with imipenem (4 μg/mL) for bacteriostasis” value in assay [1] is given as “A (A: <8 μg/mL)”; in assay [2], “A (A: <8 μg/mL)”; in assay [3] it was “C (C: 16-128 μg/mL)”; in assay [4], “A (A: <8 μg/mL)”; in assay [5], “A (A: <8 μg/mL)”; in assay [6] it was “A (A: <8 μg/mL)”. Besides, the “The minimum concentration of test compounds combined with imipenem (4 μg/mL) for bacteriostasis” value in [7] and in [8] was “A (A: <8 μg/mL)” throughout. The “The minimum concentration of test compounds combined with ceftazidime (8 μg/mL) for bacteriostasis” value in assay [9] is on record as “A (A: <8 μg/mL)”; in [10], “A (A: <8 μg/mL)”; in assay [11], “C (C: 16-128 μg/mL)”; in [12], “A (A: <8 μg/mL)”; in assay [13], “B (B: 8-16 μg/mL)”; in [14], “A (A: <8 μg/mL)”. Moreover, the “The minimum concentration of test compounds combined with ceftazidime (8 μg/mL) for bacteriostasis” value in [15] and in assay [16] was “A (A: <8 μg/mL)” throughout.

As to `N=C(N)N1CC(NCc2cc([C@@H]3CC4(CC4)[C@@H]4CN3C(=O)N4OS(=O)(=O)O)no2)C1` [Example 51, (1R,4S)-4-(5-(((1-amidinoazetidin-3-yl)amino)methyl)isoxazol-3-yl)-6-oxo-5,7-diazaspiro[bicyclo[3.2.1]octane-2,1′-cyclopropan]-7-yl sulfate], the “The minimum concentration of test compounds combined with imipenem (4 μg/mL) for bacteriostasis” value in assay [1] was “A (A: <8 μg/mL)”; in [2] it was “A (A: <8 μg/mL)”; in assay [3] it was “C (C: 16-128 μg/mL)”; in assay [4], “A (A: <8 μg/mL)”; in assay [5], “A (A: <8 μg/mL)”; in assay [6], “A (A: <8 μg/mL)”. Also, the “The minimum concentration of test compounds combined with imipenem (4 μg/mL) for bacteriostasis” value in assay [7] and in [8] was “A (A: <8 μg/mL)” each time. The “The minimum concentration of test compounds combined with ceftazidime (8 μg/mL) for bacteriostasis” value in assay [9] is “B (B: 8-16 μg/mL)”; in [10] it was “A (A: <8 μg/mL)”; in assay [11], “C (C: 16-128 μg/mL)”; in [12], “B (B: 8-16 μg/mL)”; in [13], “B (B: 8-16 μg/mL)”; in assay [14], “A (A: <8 μg/mL)”. For the same compound, the results for the “The minimum concentration of test compounds combined with ceftazidime (8 μg/mL) for bacteriostasis” value in assay [15] and in assay [16] were “A (A: <8 μg/mL)” and “C (C: 16-128 μg/mL)”, respectively.

Turning to `CN(Cc1cc([C@@H]2CC3(CC3)[C@@H]3CN2C(=O)N3OS(=O)(=O)O)no1)C(=N)N` [Example 33, (1R,4S)-4-(5-((1-methylguanidino)methyl)isoxazol-3-yl)-6-oxo-5,7-diazaspiro[bicycle [3.2.1]octane-2,1′-cyclopropan]-7-yl sulfate], the “The minimum concentration of test compounds combined with imipenem (4 μg/mL) for bacteriostasis” value is reported as “A (A: <8 μg/mL)” in assay [1]; “A (A: <8 μg/mL)” in assay [2]; “C (C: 16-128 μg/mL)” in assay [3]; “A (A: <8 μg/mL)” in assay [4]; “B (B: 8-16 μg/mL)” in assay [5]; “A (A: <8 μg/mL)” in assay [6]. The “The minimum concentration of test compounds combined with imipenem (4 μg/mL) for bacteriostasis” value in [7] and in assay [8] was “A (A: <8 μg/mL)” each time. Also, the “The minimum concentration of test compounds combined with ceftazidime (8 μg/mL) for bacteriostasis” value is “C (C: 16-128 μg/mL)” in assay [9]; “A (A: <8 μg/mL)” in [10]; “C (C: 16-128 μg/mL)” in assay [11]; “B (B: 8-16 μg/mL)” in assay [12]; “C (C: 16-128 μg/mL)” in [13]; “B (B: 8-16 μg/mL)” in assay [14]. In addition, the “The minimum concentration of test compounds combined with ceftazidime (8 μg/mL) for bacteriostasis” value is reported as “A (A: <8 μg/mL)” in assay [15] and “C (C: 16-128 μg/mL)” in [16].

Take `N=C(N)NCc1cc([C@@H]2CC3(CC3)[C@@H]3CN2C(=O)N3OS(=O)(=O)O)no1` [Example 34, (1R,4S)-4-(5-(guanidinomethyl)isoxazol-3-yl)-6-oxo-5,7-diazaspiro[bicyclo[3.2.1]octane-2,1′-cyclopropan]-7-yl sulfate]: the “The minimum concentration of test compounds combined with imipenem (4 μg/mL) for bacteriostasis” value in [1] is given as “A (A: <8 μg/mL)”; in assay [2] it was “A (A: <8 μg/mL)”; in assay [3], “B (B: 8-16 μg/mL)”; in assay [4], “A (A: <8 μg/mL)”; in [5], “B (B: 8-16 μg/mL)”; in [6] it was “A (A: <8 μg/mL)”. Also, the “The minimum concentration of test compounds combined with imipenem (4 μg/mL) for bacteriostasis” value in [7] and in assay [8] was “A (A: <8 μg/mL)” each time. Further, the “The minimum concentration of test compounds combined with ceftazidime (8 μg/mL) for bacteriostasis” value is listed as “A (A: <8 μg/mL)” in [9]; “A (A: <8 μg/mL)” in assay [10]; “C (C: 16-128 μg/mL)” in [11]; “B (B: 8-16 μg/mL)” in assay [12]; “C (C: 16-128 μg/mL)” in [13]; “A (A: <8 μg/mL)” in assay [14]. The “The minimum concentration of test compounds combined with ceftazidime (8 μg/mL) for bacteriostasis” value in [15] is recorded as “A (A: <8 μg/mL)”; in assay [16], “B (B: 8-16 μg/mL)”.

For `NCc1cc([C@@H]2CC3(CC3)[C@@H]3CN2C(=O)N3OS(=O)(=O)O)no1` [Example 35, (1R,4S)-4-(5-(aminomethyl)-isoxazol-3-yl)-6-oxo-5,7-diazaspiro[bicyclo[3.2.1]octane-2,1′-cyclopropan]-7-yl sulfate], the “The minimum concentration of test compounds combined with imipenem (4 μg/mL) for bacteriostasis” value in [1] is “A (A: <8 μg/mL)”; in [2], “A (A: <8 μg/mL)”; in [3] it was “C (C: 16-128 μg/mL)”; in [4], “A (A: <8 μg/mL)”; in assay [5], “B (B: 8-16 μg/mL)”; in [6] it was “A (A: <8 μg/mL)”. In addition, the “The minimum concentration of test compounds combined with imipenem (4 μg/mL) for bacteriostasis” value in [7] and in assay [8] was “A (A: <8 μg/mL)” throughout. For the same compound, the “The minimum concentration of test compounds combined with ceftazidime (8 μg/mL) for bacteriostasis” value was “A (A: <8 μg/mL)” in [9]; “A (A: <8 μg/mL)” in [10]; “C (C: 16-128 μg/mL)” in assay [11]; “A (A: <8 μg/mL)” in assay [12]; “C (C: 16-128 μg/mL)” in assay [13]; “A (A: <8 μg/mL)” in assay [14]. In addition, the “The minimum concentration of test compounds combined with ceftazidime (8 μg/mL) for bacteriostasis” value in assay [15] and in assay [16] was “A (A: <8 μg/mL)” in each case.

The record behind these values is patent US11078202B2, “β-lactamase inhibitor and use thereof” (priority 2018, dated 2021).
